Target: T1, IRAK4 (Homo sapiens, UniProt Q9NWZ3)
T1 construct: endogenous in cells; host or cells: OCI-LY10
T1 sequence (Q9NWZ3 1-460): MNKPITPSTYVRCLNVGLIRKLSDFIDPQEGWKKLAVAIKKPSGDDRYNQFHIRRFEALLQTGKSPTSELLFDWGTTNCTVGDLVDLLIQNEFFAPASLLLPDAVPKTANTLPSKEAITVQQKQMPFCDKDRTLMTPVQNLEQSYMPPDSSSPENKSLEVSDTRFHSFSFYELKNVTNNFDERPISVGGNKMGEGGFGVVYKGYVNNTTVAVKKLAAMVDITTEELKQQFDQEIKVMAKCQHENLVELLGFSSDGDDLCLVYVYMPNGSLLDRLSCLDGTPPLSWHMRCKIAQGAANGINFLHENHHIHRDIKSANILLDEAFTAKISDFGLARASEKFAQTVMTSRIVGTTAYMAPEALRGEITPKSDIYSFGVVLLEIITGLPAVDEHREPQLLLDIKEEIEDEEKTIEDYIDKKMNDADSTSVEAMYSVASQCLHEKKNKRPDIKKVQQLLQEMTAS
Assay: IRAK4 MSD Degradation in OCI-LY10
Format: cell-based
Conditions: OCI-LY10 cells, Meso Scale Discovery, incubated 4 to 24 hours
Summary of the method: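 IRAK4 degradation was quantified by Meso Scale electrochemiluminescence (anti-IRAK4 capture and detection antibodies) in lysates of treated OCI-LY10 cells. Compounds were dosed at 8 concentrations (1:3 dilutions, top 1 to 10 μM) for 4 to 24 h; DC50 derived by three-parameter logistic fitting.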

Structure (SMILES)	DC50 [nM]
COc1ccc2c(c1C1CCN(C[C@H]3CC[C@H](n4cc5cc(NC(=O)c6cccc(C(F)(F)F)n6)c(F)cc5n4)CC3)CC1)n(C)c(=O)n2C1CCC(=O)NC1=O (stereo partly drawn) [I-47]	10 to 50
COC(=O)c1cc2nn([C@H]3CC[C@H](CN4CCN(c5cccc6c5n(C)c(=O)n6C5CCC(=O)NC5=O)CC4)CC3)cc2cc1NC(=O)c1cccc(C(F)(F)F)n1 (stereo partly drawn) [I-405]	10 to 50
COc1cc2nn([C@H]3CC[C@H](CN4C[C@H]5C[C@@H]4CN5c4cccc5c(N6CCC(=O)NC6=O)cncc45)CC3)cc2cc1NC(=O)c1cccc(C(F)(F)F)n1 [I-155]	10 to 50
COc1cc2nn([C@H]3CC[C@H](CN4CCN(c5cccc6c(N7CCC(=O)N(C)C7=O)cncc56)CC4)CC3)cc2cc1NC(=O)c1cccc(C(F)(F)F)n1 [I-330]	> 200
CC(C)Nc1cc(-n2ccc3cc(C#N)cnc32)ncc1-c1cn([C@H]2CC[C@H](CN3CCN(c4cccc5c(N6CCC(=O)NC6=O)cncc45)CC3)CC2)nn1 [I-197]	< 10
Cc1cc2nn([C@H]3CC[C@H](CN4CCN(c5cccc6c5n(C)c(=O)n6C5CCC(=O)NC5=O)CC4(C)C)CC3)cc2cc1NC(=O)c1cccc(C(F)(F)F)n1 (stereo partly drawn) [I-305]	10 to 50
CC(C)Nc1cc(-n2ccc3cc(C#N)cnc32)ncc1C(=O)N[C@H]1CC[C@H](CN2CCN(c3cccc4c(N5CCC(=O)NC5=O)cncc34)CC2)CC1 [I-372]	< 10
COc1cc2nn([C@H]3CC[C@H](CN4CCC(c5cccc6c5n(C)c(=O)n6C5CCC(=O)NC5=O)CC4)CC3)cc2cc1NC(=O)c1ccc(C(F)(F)F)nc1 (stereo partly drawn) [I-194]	> 200
Cc1cc2nn([C@H]3CC[C@H](CN4CCN(c5cccc6c5n(C)c(=O)n6[C@@H]5CCC(=O)NC5=O)CC4)CC3)cc2cc1NC(=O)c1cccc(C(F)(F)F)n1 [I-400, N-[2-[4-[[4-[1-[(3R)-2,6-dioxo-3-piperidyl]-3-methyl-2-oxo-benzimidazol-4-yl]piperazin-1-yl]methyl]cyclohexyl]-6-methyl-indazol-5-yl]-6-(trifluoromethyl)pyridine-2-carboxamide]	< 10
Cc1cccc(C(=O)Nc2cc3sc([C@H]4CC[C@H](CN5CCO[C@@H](CCCNc6cccc7c6C(=O)N(C6CCC(=O)NC6=O)C7=O)C5)CC4)nc3cc2C(C)(C)O)n1 (stereo partly drawn) [I-472]	50 to 100
COc1cc2nc([C@H]3CC[C@H](CN(C)CCCCNc4cccc5c4C(=O)N(C4CCC(=O)NC4=O)C5=O)CC3)sc2cc1NC(=O)c1cccc(C)n1 (stereo partly drawn) [I-437]	10 to 50
CC(C)(O)c1cc2nn([C@H]3CC[C@H](CN4C5CC4CN(c4cccc6c(N7CCC(=O)NC7=O)cncc46)C5)CC3)cc2cc1NC(=O)c1cccc(C(F)(F)F)n1 [I-228]	< 10
CC(C)(O)c1cc2nc([C@H]3CC[C@H](CN4CCO[C@@H](CCCNc5cccc6c5C(=O)N(C5CCC(=O)NC5=O)C6=O)C4)CC3)sc2cc1NC(=O)c1cncc(C#N)c1 (stereo partly drawn) [I-454]	> 200
COc1cc2nn([C@H]3CC[C@H](CN4CCC(O[C@H]5C[C@@H](c6cccc7c6n(C)c(=O)n7C6CCC(=O)NC6=O)C5)CC4)CC3)cc2cc1NC(=O)c1cccc(C(F)(F)F)n1 (stereo partly drawn) [I-385]	10 to 50
COc1cc2nn([C@H]3CC[C@H](CN(C)C4CCN(c5cccc6c(N7CCC(=O)NC7=O)cncc56)CC4)CC3)cc2cc1NC(=O)c1cccc(C(F)(F)F)n1 [I-96]	< 10
Cn1c(=O)n(C2CCC(=O)NC2=O)c2cccc(N3CCN(C[C@H]4CC[C@H](n5cc6cc(NC(=O)c7cccc(C(F)(F)F)n7)ccc6n5)CC4)C(C)(C)C3)c21 (stereo partly drawn) [I-324]	10 to 50
COc1cc2nn([C@H]3CC[C@H](CN(C)C4CCN(c5cccc6c5n(C)c(=O)n6C5CCC(=O)NC5=O)CC4)CC3)cc2cc1NC(=O)c1cncc(Cl)c1 (stereo partly drawn) [I-80]	< 10
COc1cc2nn([C@H]3CC[C@H](CN(C)C4CCN(c5cccc6c5n(C)c(=O)n6C5CCC(=O)NC5=O)CC4)CC3)cc2cc1NC(=O)c1ccc(C(F)(F)F)cn1 (stereo partly drawn) [I-16]	10 to 50
COc1cncc(C(=O)Nc2cc3cn([C@H]4CC[C@H](CN5CCN(c6cccc7c6n(C)c(=O)n7C6CCC(=O)NC6=O)CC5)CC4)nc3cc2OC)c1 (stereo partly drawn) [I-287]	< 10
CC(C)(O)c1cc2nc([C@H]3CC[C@H](C(=O)N4CC5(CC(CCNc6cccc7c6C(=O)N(C6CCC(=O)NC6=O)C7=O)C5)C4)CC3)sc2cc1NC(=O)c1cncc(C#N)c1 (stereo partly drawn) [I-448]	> 200
COc1cc2nc([C@H]3CC[C@H](CN(C)CCCCNc4cccc5c4C(=O)N(C4CCC(=O)NC4=O)C5=O)CC3)sc2cc1NC(=O)c1cccc(C(F)(F)F)n1 (stereo partly drawn) [I-446]	10 to 50
Cn1c(=O)n(C2CCC(=O)NC2=O)c2ccc(F)c(C3CCN(C[C@H]4CC[C@H](n5cc6cc(NC(=O)c7cccc(C(F)(F)F)n7)ccc6n5)CC4)CC3)c21 (stereo partly drawn) [I-74]	10 to 50
Cc1c(C2CCN(C[C@H]3CC[C@H](n4cc5cc(NC(=O)c6cccc(C(F)(F)F)n6)ncc5n4)CC3)CC2)ccc2c1n(C)c(=O)n2C1CCC(=O)NC1=O (stereo partly drawn) [I-210]	> 200

Structure (SMILES)	DC50 [nM]
CC(C)(O)c1cc2nc([C@H]3CC[C@H](CN4CCN(CCNc5cccc6c5C(=O)N(C5CCC(=O)NC5=O)C6=O)CC4)CC3)sc2cc1NC(=O)c1cccc(C#N)n1 (stereo partly drawn) [I-441]	10 to 50
COc1cc2nc([C@H]3CC[C@H](CN(C)CCCNc4cccc5c4C(=O)N(C4CCC(=O)NC4=O)C5=O)CC3)sc2cc1NC(=O)c1cncc(C#N)c1 (stereo partly drawn) [I-458]	> 200
COc1ccc2c(c1N1CCN(C[C@H]3CC[C@H](NC(=O)c4cnc(-n5ccc6cc(C#N)cnc65)cc4NC(C)C)CC3)CC1)n(C)c(=O)n2C1CCC(=O)NC1=O (stereo partly drawn) [I-391]	10 to 50
Cn1c(=O)n(C2CCC(=O)NC2=O)c2cccc(C3CCN(C[C@H]4CC[C@H](n5cc6cc(NC(=O)c7cccc(C(F)(F)F)n7)c(N7CCOCC7)cc6n5)CC4)CC3)c21 (stereo partly drawn) [I-38]	< 10
COc1cc2nc([C@H]3CC[C@H](CN(C)CCCNc4cccc5c4C(=O)N(C4CCC(=O)NC4=O)C5=O)CC3)sc2cc1NC(=O)c1cncc(C)c1 (stereo partly drawn) [I-459]	> 200
Cc1cccc(C(=O)Nc2cc3sc([C@H]4CC[C@H](C(=O)N5CCN(CCCNc6cccc7c6C(=O)N(C6CCC(=O)NC6=O)C7=O)CC5)CC4)nc3cc2C(C)(C)O)n1 (stereo partly drawn) [I-465]	< 10
Cc1cc2nn([C@H]3CC[C@H](CN4CCN(c5cccc6c5n(C)c(=O)n6C5CCC(=O)NC5=O)C[C@@H]4C)CC3)cc2cc1NC(=O)c1cccc(C(F)(F)F)n1 (stereo partly drawn) [I-301]	< 10
COc1cc2nn([C@H]3CC[C@H](CN4CCC(c5c(F)ccc6c5n(C)c(=O)n6C5CCC(=O)NC5=O)CC4)CC3)cc2cc1NC(=O)c1cccc(C(F)(F)F)n1 (stereo partly drawn) [I-101]	< 10
O=C1CCN(c2cncc3cc(C4CCN(C[C@H]5CC[C@H](c6nc7cnc(NC(=O)c8cccc(C(F)(F)F)n8)cc7s6)CC5)CC4)ccc23)C(=O)N1 [I-241]	> 200
COc1cc(NC(=O)c2cccc(C(F)(F)F)n2)cc2cn([C@H]3CC[C@H](CN4CCC(c5cccc6c(N7CCC(=O)NC7=O)cncc56)CC4)CC3)nc12 [I-221]	< 10
CN(C[C@H]1CC[C@H](n2cc3cc(NC(=O)c4cncc(C#N)c4)c(N4C[C@H]5C[C@@H]4CO5)cc3n2)CC1)C1CCN(c2cccc3c2n(C)c(=O)n3C2CCC(=O)NC2=O)CC1 (stereo partly drawn) [I-217]	> 200
Cn1c(=O)n(C2CCC(=O)NC2=O)c2cccc(N3CCN(C[C@H]4CC[C@H](n5cc6cc(NC(=O)c7cccc(C(F)(F)F)n7)c(N7CCCC7)cc6n5)CC4)CC3)c21 (stereo partly drawn) [I-392]	10 to 50
Cn1c(=O)n(C2CCC(=O)NC2=O)c2cccc(N3CCN(C[C@H]4CC[C@H](n5cc6cc(NC(=O)c7cccc(C(F)(F)F)n7)c(N7C[C@@H]8C[C@H]7CO8)cc6n5)CC4)CC3)c21 (stereo partly drawn) [I-383]	< 10
Cc1cccc(C(=O)Nc2cc3sc([C@H]4CC[C@H](CN5CCN(CCNc6cccc7c6C(=O)N(C6CCC(=O)NC6=O)C7=O)[C@@H](C)C5)CC4)nc3cc2C(C)(C)O)n1 (stereo partly drawn) [I-467]	10 to 50
CC(C)Nc1cc(-n2ccc3cc(C#N)cnc32)ncc1C(=O)NC[C@H]1CC[C@H](CN(C)C2CCN(c3cccc4c3n(C)c(=O)n4C3CCC(=O)NC3=O)CC2)CC1 (stereo partly drawn) [I-84]	50 to 100
Cc1cc2nn([C@H]3CC[C@H](CN4CCC(c5cccc6c5n(C)c(=O)n6[C@H]5CCC(=O)NC5=O)CC4)CC3)cc2cc1NC(=O)c1cccc(C(F)(F)F)n1 (single isomer, unassigned) [I-390]	10 to 50
Cn1c(=O)n(C2CCC(=O)NC2=O)c2cccc(C3CCN(C[C@H]4C[C@H](n5cc6cc(NC(=O)c7cccc(C(F)(F)F)n7)c(Cl)cc6n5)C4)CC3)c21 (stereo partly drawn) [I-90]	10 to 50
COc1cc2nn([C@H]3CC[C@H](CN4CCC(c5ccc6c(c5C)n(C)c(=O)n6C5CCC(=O)NC5=O)CC4)CC3)cc2cc1NC(=O)c1cccc(C(F)(F)F)n1 (stereo partly drawn) [I-173]	< 10
COc1cc2nn([C@H]3CC[C@H](CN4CCN(c5cccc6c5n(C)c(=O)n6C5CCC(=O)NC5=O)C[C@@H]4C)CC3)cc2cc1NC(=O)c1cccc(C(F)(F)F)n1 (stereo partly drawn) [I-246]	10 to 50
Cc1cccc(C(=O)Nc2cc3sc([C@H]4CC[C@H](CN5CCO[C@H](CCCNc6cccc7c6C(=O)N(C6CCC(=O)NC6=O)C7=O)C5)CC4)nc3cc2C(C)(C)O)n1 (stereo partly drawn) [I-477]	100 to 200
CC(C)(O)c1cc2nc([C@H]3CC[C@H](CN4CCO[C@H](CCCNc5cccc6c5C(=O)N(C5CCC(=O)NC5=O)C6=O)C4)CC3)sc2cc1NC(=O)c1cccc(C#N)n1 (stereo partly drawn) [I-442]	50 to 100
COc1cc2nn([C@H]3CC[C@H](CN4CC5(CCN(c6cccc7c6n(C)c(=O)n7C6CCC(=O)NC6=O)CC5)C4)CC3)cc2cc1NC(=O)c1cncc(C#N)c1 (stereo partly drawn) [I-206]	< 10

Source: patent US12150995B2, “IRAK degraders and uses thereof” (Kymera Therapeutics, Inc., priority 2020, dated 2024)
